Drawing on ChEMBL document CHEMBL1155490, “Aaptamine, an alkaloid from the sponge Aaptos suberitoides, functions as a proteasome inhibitor” (Bioorg Med Chem Lett, 2010), this text covers IC50 for two molecules.

Experiment [1] can be described thus: Inhibition of caspase like activity of partially purified rat liver proteasome by spectrofluorimetry. The class given is subcellular.
Experiment [2] is described as follows: Inhibition of chymotrypsin like activity of partially purified rat liver proteasome by spectrofluorimetry. The format is subcellular.
A short description of experiment [3]: Inhibition of caspase-like activity of 20S proteasome in human erythrocyte by spectrofluorimetry.
Experiment [4] can be described thus: Inhibition of trypsin like activity of partially purified rat liver proteasome by spectrofluorimetry. The format is subcellular.
A short description of experiment [5]: Inhibition of chymotrypsin-like activity of purified 20S proteasome from human erythrocyte.
The subject of a further experiment is HeLa. Description: Cytotoxicity against human HeLa cells after 3 days by MTT assay. The format is functional, cell-based. Particulars: 72 h.

The structures appear in SMILES notation. In brackets after ≈: the same amount, converted by molar mass.

Take `COc1cc2ccnc3c2c(c1OC)NC=C3` [AAPTAMINE]: the IC50 (usually the concentration needed to halve the response being measured) in experiment [1] is 2.7 µg/mL (≈ 11.8 µM); in experiment [2] it was 1.6 µg/mL (≈ 7.01 µM); in experiment [3], 4.6 µg/mL (≈ 20.2 µM); in experiment [4], 18 µg/mL (≈ 78.9 µM); in experiment [5] it was 4.3 µg/mL (≈ 18.8 µM); in the experiment on HeLa it was 15 µg/mL (≈ 65.7 µM).
In the case of `COc1cc2ccnc3c2c(c1O)N(C)C=C3` [ISOAAPTAMINE], the half-maximal inhibitory concentration (IC50) in experiment [1] is 2.4 µg/mL (≈ 10.5 µM); in experiment [2], 2.1 µg/mL (≈ 9.2 µM); in experiment [3], 1.7 µg/mL (≈ 7.45 µM); in experiment [4], 10 µg/mL (≈ 43.8 µM); in experiment [5] it was 1.7 µg/mL (≈ 7.45 µM); with HeLa it was 3.1 µg/mL (≈ 13.6 µM).
